For 80 molecules, RP-LC retention time results are on record in the METLIN SMRT retention time set (Domingo-Almenara et al. 2019).

The data set is described as follows: gradient 5% acetonitrile 3 min, to 50% in 2 min, to 85% in 15 min, held 3 min, 100 µL/min. The conditions noted are these: column: Zorbax Extend-C18 2.1 x 50 mm; eluents: water / acetonitrile, 0.1% formic acid. Put shortly:
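In both positive and negative ionization mode, a quadrupole time-of-flight mass spectrometer coupled to HPLC analyzed pure standards run in mixtures of ~100 molecules. The Zorbax Extend-C18 column (2.1 × 50 mm, 1.8 μm) was operated at 100 μL/min with water and acetonitrile, each containing 0.1% formic acid. The dead volume was 40 μL and the dwell volume 900 μL. Retention time came from adduct peaks that were computationally picked and individually inspected by hand.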
In turn, `O=C(C1=CCN(Cc2ccccc2)CC1)N1CCN(c2ccc(F)cc2)CC1` gave an RP-LC retention time of 655 s.
The molecule `Cc1ccc(S(=O)(=O)CCc2noc(-c3sc(C)nc3C)n2)cc1` returned an RP-LC retention time of 818 s.
`O=C(c1ccc2ccccc2n1)N1C[C@@H](CO)[C@H](c2ccccn2)C1` showed an RP-LC retention time of 590 s.
`CCCCOc1ccc(-c2cc3c4nnc(CCC(=O)N5CCN(C)CC5)n4ccn3n2)cc1`: the RP-LC retention time is 686 s.
Turning to `CC1CCN(C(=O)CN2C(=O)COc3ccc(C(=O)N4CCCC4)cc32)CC1`, the RP-LC retention time worked out at 698 s.
`CC(=O)Nc1c(C)cc(OCC(=O)O)cc1C` displayed an RP-LC retention time of 649 s.
Under `COC(=O)Nc1nc2ccc(Br)cc2[nH]1` stands 642 s.
Regarding `Cc1cc(S(=O)(=O)Nc2ccc3c(c2)CCC(=O)N3CC(C)C)ccc1F`, the RP-LC retention time was found to be 909 s.
Take `COc1ccc(N(CC(O)CNCCC(C)C)S(=O)(=O)c2ccc(C)cc2)cc1` (stereo not given): the RP-LC retention time stood at 620 s.
As to `O=C(Nc1ccc(Cl)cc1)N1CCC(N2CCN(Cc3ccccc3)C(=O)C2=O)CC1`, the RP-LC retention time came out at 764 s.
As for `CC(=O)Nc1ccc(-n2c(C)nc3ccccc3c2=O)cc1C`, the RP-LC retention time turned out to be 621 s.
Under `CCCCN1N=C(C(=O)N2CCC(C)CC2)S(=O)(=O)c2ccc(C)cc21` stands 1060 s; under `CCOc1ccccc1NS(=O)(=O)c1ccccc1-c1nc(-c2ccc(F)cc2)no1`, 1150 s.
On to `CCOc1ccc(N2CCn3c2nnc(C(=O)NCc2ccco2)c3=O)cc1`, for which the RP-LC retention time was 684 s.
Molecule `COc1cc2c(CCNC(C)=O)c[nH]c2cc1Cl` returned an RP-LC retention time of 754 s.
Molecule `CCc1ccc(NC(=O)N2CCC(c3nc(C(=O)N(C)C)c(C)o3)CC2)cc1` returned an RP-LC retention time of 769 s.
Under `Cc1ccc(OCC(=O)NCc2ccc(F)cc2)nn1` stands 607 s; under `CC1CCN(S(=O)(=O)c2ccc(-c3nnc(C(=O)NCCN(C)C)o3)cc2)CC1`, 670 s.
For `O=C(Cc1c(F)cccc1Cl)NCC(=O)N1CCN(c2ccccn2)CC1`, the RP-LC retention time is 605 s.
The same measure for `COc1cccc(NC(=O)N2CCN(c3ccc(Nc4cc(C)ccn4)nn3)CC2)c1`: 588 s.
Regarding `COc1cccc(S(=O)(=O)N2CCCC(c3nn[nH]n3)C2)c1` (stereo not given), the RP-LC retention time worked out at 717 s.
In turn, `Oc1cccc(-c2nc3cnccn3c2Nc2ccccc2)c1` had an RP-LC retention time of 710 s.
In the case of `CCCc1noc(-c2ccc3nnc(CC(=O)Nc4ccc(C)cc4C)n3c2)n1`, the RP-LC retention time stood at 926 s.
`COc1c(C(=O)NC(C)C)sc2ccc(F)cc12` returned an RP-LC retention time of 952 s.
Under `CCCC(=O)OCC1OC(n2ccc(N)nc2=O)C(OC(=O)CCC)C1OC(=O)CCC` (stereo not given) stands 738 s; under `c1ccc2c(c1)CCN(Cc1nc(-c3ccc(N4CCCCCC4)nc3)no1)C2`, 816 s; under `FC(F)(F)c1cccc(CSc2ccc(-n3ccnc3)nn2)c1`, 671 s.
For `O=C(Cn1cccc1-c1nnc(-c2ccccc2)o1)NCc1ccccc1`, the RP-LC retention time is 882 s.
The molecule `Cc1cc(S(=O)(=O)Nc2cccn3cnnc23)ccc1F` came in with an RP-LC retention time of 686 s.
Regarding `Cc1nnc2c(=O)n(CC(=O)NCc3ccccc3F)c3cccnc3n12`, the RP-LC retention time came out at 649 s.
Molecule `Cc1ccc(-c2ccc3nnc(CCC(=O)NC4CCC(C)CC4)n3n2)cc1C` (stereo not given) showed an RP-LC retention time of 854 s.
Regarding `CCN(CC)CCNC(=O)c1sc2ncn(CC(=O)N3CC(C)CC(C)C3)c(=O)c2c1C` (stereo not given), the RP-LC retention time amounted to 658 s.
The same measure for `CCC(C)NC(=O)c1cn(-c2cc(-c3nc(C(C)C)no3)ccn2)cn1` (stereo not given): 907 s; for `Cc1ccc(NC(=O)Cn2c(=O)c3cc(C4CC4)nn3c3ncccc32)c(C)c1`: 808 s; for `COc1ccc(-c2csc(NC(=O)Cn3c(=O)oc4ccccc43)n2)cc1`: 933 s.
On to `Cc1cccc(N2CCN(C(=O)C3CCCN(c4nc5ccccc5n5cccc45)C3)CC2)c1C` (stereo not given), for which the RP-LC retention time stood at 977 s.
`CCC(C)NC(=O)c1cc(=O)[nH]c2ccccc12` (stereo not given): the RP-LC retention time amounted to 645 s.
The same measure for `CC(=O)Nc1nc(-c2ccc3c(c2)NC(=O)C(C)O3)cs1` (stereo not given): 685 s.
Take `CCCc1noc(-c2ccc(-n3cnc(C(=O)NC4CCCCC4)c3)nc2)n1`: the RP-LC retention time turned out to be 741 s.
The molecule `O=C1CC(c2noc(-c3ccc4c(c3)OCO4)n2)CN1c1ccc(F)c(Cl)c1` (stereo not given) registered an RP-LC retention time of 1010 s.
Molecule `CCn1ccc(C(=O)NC2CCN(C3=NS(=O)(=O)C(c4ccc(F)cc4)=C3C)CC2)n1` came in with an RP-LC retention time of 777 s.
The molecule `COc1ccc(-c2ncc(C(=O)Nc3ccc(OC)cc3OC)c(-c3ccncc3)n2)cc1` yielded an RP-LC retention time of 839 s.
The molecule `COc1cc(NC(=O)N2CCC(n3c(C)nc4cccnc43)CC2)cc(OC)c1OC` returned an RP-LC retention time of 569 s.
Under `O=C(c1ccco1)N1CCCC1c1nc(-c2ccc(F)cc2F)no1` (stereo not given) stands 860 s.
As for `Cc1ccsc1C(=O)Nc1ccccc1SCc1nnc(-c2ccccc2)o1`, the RP-LC retention time stood at 1080 s.
On to `O=C(NCCCN1CCOCC1)c1cc2occc2c(Nc2ccc(F)cc2)n1`, for which the RP-LC retention time is 652 s.
Turning to `CC1=C(c2ccccc2)S(=O)(=O)N=C1N1CCCN(C(=O)NC(C)C)CC1`, the RP-LC retention time came out at 714 s.
The same measure for `CCOCCCNC(=O)C(Cc1c[nH]c2ccccc12)NC(=O)C1CCC(C)CC1` (stereo not given): 839 s.
Take `Cc1ccc(N2CCC(NC(=O)Cc3cccc(F)c3)C2=O)cc1` (stereo not given): the RP-LC retention time was 829 s.
Consider `C=CCN(Cc1nc(-c2ccc(C)cc2)no1)C(=O)Nc1ccccc1C`, for which the RP-LC retention time is 650 s.
The same measure for `CCN1CCCC1CNC(=O)c1nc(CCS(=O)(=O)c2ccc(OC)cc2)no1` (stereo not given): 622 s; for `COc1ccc(C2CC(=O)c3c(C)nc(N4CCN(CCO)CC4)nc3C2)cc1` (stereo not given): 638 s; for `CC(C)NC(=O)c1ccccc1OCC1CCN(C(=O)c2cc(F)cc(F)c2)CC1`: 927 s.
For `NC[C@@H]1O[C@H](c2ccccc2)Cc2c1ccc(O)c2O`, the RP-LC retention time was 662 s.
Molecule `CCCN(CC(=O)N1CCc2sccc2C1COc1ccccc1OC)C(=O)COC` (stereo not given) registered an RP-LC retention time of 800 s.
Molecule `CCC1Oc2ccc(S(=O)(=O)N3CCC(C(=O)Nc4ccc(F)c(Cl)c4)CC3)cc2NC1=O` (stereo not given) registered an RP-LC retention time of 969 s.
As for `Cc1cccc(C(=O)Nc2nc(-c3ccc4c(c3)NC(=O)C(C)O4)c(C)s2)c1` (stereo not given), the RP-LC retention time was 979 s.
`COC(=O)c1ccc(NS(=O)(=O)c2ccc(-c3c(C)noc3C)cc2)cc1` registered an RP-LC retention time of 866 s.
On to `Cc1ccc(-c2nnc(-c3nc(NCc4ccco4)c4ccccc4n3)o2)cc1`, for which the RP-LC retention time is 995 s.
Consider `CCOCC(=O)N1CCCN(C2=NS(=O)(=O)C(c3ccccc3)=C2C)CC1`, for which the RP-LC retention time stood at 688 s.
`O=C(CCCc1ccccc1)Nc1cnn(-c2ncc(N3CCCC3)cn2)c1`: the RP-LC retention time was found to be 849 s.
For `Cn1ccc2cc(CCC(=O)N3CCN(c4ccc(Cl)cc4)CC3)ccc21`, the RP-LC retention time turned out to be 1050 s.
`CCCSCCCNC(=O)c1cc2n(n1)CCCN(Cc1ccc(C)cc1)C2=O` came in with an RP-LC retention time of 852 s.
Consider `CC(=O)c1ccc(N2CCN(C(=O)CN3C(=O)C4C5C=CC(C5)C4C3=O)CC2)cc1` (stereo not given), for which the RP-LC retention time stood at 644 s.
The same measure for `COc1ccc(Cc2nnc(SCC(=O)Nc3nc(-c4ccccc4)cs3)o2)cc1`: 985 s; for `COc1ccc(C2Nn3c(C)nnc3SC2C(=O)N2CCCCCC2)cc1Br` (stereo not given): 794 s.
Turning to `O=C(CN1CCN(Cc2ccccc2)CC1)Nc1nc(-c2ccccc2)cs1`, the RP-LC retention time amounted to 700 s.
`CCn1c(=O)c(C(=O)N2CCN(c3ccccn3)CC2)nc2ccccc21` returned an RP-LC retention time of 588 s.
In the case of `COc1ccc(C)cc1NC(=O)C1CCCN1S(=O)(=O)c1cc2c(cc1C)NC(=O)C(C)O2` (stereo not given), the RP-LC retention time is 880 s.
In turn, `c1ccc(-c2nnc3oc(-c4cccs4)nn23)cc1` showed an RP-LC retention time of 911 s.
Take `COc1cccc(S(=O)(=O)N2CCc3nc(-c4ccc(Cl)cc4)ncc3C2)c1`: the RP-LC retention time stood at 1200 s.
In turn, `Cc1ccc(CNC(=O)CCc2nnc3c4cc(-c5ccccc5)nn4ccn23)cc1C` displayed an RP-LC retention time of 815 s.
Take `COc1cc(C(C)c2cc3c(cc2OCCO)OCO3)cc(OC)c1OC` (stereo not given): the RP-LC retention time stood at 798 s.
Molecule `CCN(CC)CCNc1ncnc2onc(-c3ccc(F)cc3)c12` yielded an RP-LC retention time of 625 s.
The same measure for `CCC(C(=O)Nc1ccc(OC)cc1)n1cnc2nc3c(cc2c1=O)CCCC3` (stereo not given): 770 s.
The same measure for `CC(C)Cn1nc2ccc(S(=O)(=O)N3CCOCC3)cn2c1=O`: 732 s.
Under `COC(=O)c1cc(OCC(=O)Nc2ccc3c(c2)OCO3)c2cc(F)ccc2n1` stands 778 s; under `CCOCC(=O)N1CCCC(c2nc(CNC(=O)C3CCC3)cs2)C1` (stereo not given), 645 s; under `O=C(c1[nH]c2ccccc2c1Sc1ccc(Cl)cc1)N1CCN(c2ccccn2)CC1`, 825 s.
Consider `CN1C(=O)CCc2cc(NC(=O)c3ccnn3C)ccc21`, for which the RP-LC retention time was 645 s.
